Data published in patent US10176292B2, “STING crystals and modulators” (MEMORIAL SLOAN-KETTERING CANCER CENTER, priority 2013, dated 2019).
Residue numbers refer to the chain shown, from its start.

Tests used:
[1] = tested on: THP1 cells; assay: CXCL10 ELISA, THP1 stimulation with cGAMP isomers; type: cell-based; conditions: Homo sapiens
Method: Human THP1 cells were cultured in RPMI1640 (Life Technologies) containing 10% FBS, 2 mM glutamine (Life Technologies), 1 mM sodium pyruvate (Life Technologies), and 100 U/ml penicillin/streptomycin (Life Technologies).
(§1) Bone marrow derived murine macrophages and THP-1 cells were stimulated by incubation with cGAMP isomers at indicated concentrations for 18 hrs, or by Digitonin permeabilization (30 minutes) at indicated concentrations as described (Woodward et al., 2010). Cytokines in supernatants were determined after 18 hrs by ELISA. THP1 cells were plated at 8×10^4 cells per 96-well and treated as described above.
(§2) CXCL10 was measured using the BD Opteia human IP-10 ELISA Set according to manufacturer's recommendations. Murine IFN-α was determined by ELISA using antibody RMMA-1 for capture and rabbit-anti-murine IFN-α polyclonal antibody for detection (PBL Interferon Source, Piscataway, N.J.). Dose-response curves were fitted and EC50 values were determined with Graphpad Prism (Graph Pad Software Inc., San Diego, Calif.).

[2] = tested on: murine BMDMs; assay: IFN-α ELISA, BMDM stimulation with cGAMP isomers; type: cell-based; conditions: Mus musculus, BMDM - Ifna
Method: as §1, §2

[3] = molecular target: hSTING^R232 (aa 140-379) (Homo sapiens, UniProt Q86WV6, H232R); assay: ITC binding, hSTING^R232 (wt hSTING)
[4] = molecular target: T1, hSTING^H232 (aa 140-379) (Homo sapiens, UniProt Q86WV6); assay: ITC binding, hSTING^H232; conditions: Protein: 0.2 mM; Ligands: 1 mM; 30 mM HEPES, 100 mM NaCl, pH 7.5; 25° C.
T1 construct: His6-SUMO (N, cleaved yes); made in house; host or cells: E. coli BL21 (DE3) RIL

[5] = molecular target: T2, mSting^R231 (aa 139-378) (Mus musculus, UniProt Q3TBT3); assay: ITC binding, mSting^R231
T2 sequence (Q3TBT3 139-378): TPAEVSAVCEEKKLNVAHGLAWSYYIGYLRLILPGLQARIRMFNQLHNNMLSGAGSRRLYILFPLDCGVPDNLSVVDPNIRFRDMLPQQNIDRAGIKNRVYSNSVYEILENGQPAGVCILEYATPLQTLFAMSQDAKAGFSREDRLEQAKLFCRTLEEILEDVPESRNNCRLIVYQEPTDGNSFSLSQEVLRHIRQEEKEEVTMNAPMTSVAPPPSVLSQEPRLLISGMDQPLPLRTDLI

[6] = molecular target: T3, hSTING^H232 (Homo sapiens, UniProt Q86WV6); assay: IFN-β luciferase reporter, HEK293T cells with hSTING^H232; type: cell-based; conditions: digitonin permeabilization (30 min), 12 h
T3 construct: Full-length hSTING (wt and substitutions) and mSTING (wt) constructs were used for this cellular assay; expressed in transfected cells; host or cells: HEK293T

[7] = molecular target: T4, mSting^A231 (aa 139-378) (Mus musculus, UniProt Q3TBT3, R231A); conditions: Protein: 0.2 mM; Ligands: 1.0 mM; pH 7.5; 25° C.
T4 sequence (Q3TBT3 139-378 R231A): T2 sequence (Q3TBT3 139-378) with R93A

[8] = tested on: BMDMs; assay: Western blot of Tbk1 and Irf3 phosphorylation in BMDMs; type: cell-based, mouse; conditions: 15 μM, 2 and 4 h post-treatment
Method: BMDMs (1×10^6) were treated with cGAMP linkage isomers. At various times post-stimulation, the medium was removed and cells were collected. Whole-cell lysates were prepared at 2, 4, and 8 h post-treatment. Equal amounts of proteins were subjected to SDS-PAGE and transferred to a nitrocellulose membrane. Phosphorylation of IRF3 was determined using a rabbit polyclonal antibody specific for phosphoserine-396 of IRF3 (Cell signaling). The level of IRF3 was determined by using a rabbit polyclonal antibody against IRF3. Phosphorylation of TBK1 was determined using a rabbit monoclonal antibody specific for phosphoserine-172 of TBK1 (Cell Signaling). The level of TBK1 was determined by using a rabbit monoclonal antibody against TBK1 (Cell Signaling). Anti-glyceraldehyde-3-phosphate dehydrogenase (GADPH) was used as loading controls.

[9] = tested on: bone-marrow-derived macrophages (BMDMs); assay: qPCR of Ifnb1, I16, Cc15 mRNAs in BMDMs; conditions: differences to the other two isomers did not exceed three-fold
[10] = molecular target: T5, hSTING^R232 (Homo sapiens, UniProt Q86WV6, H232R); assay: IFN-β luciferase reporter, HEK293T cells with hSTING (hSTING^R232); type: cell-based; conditions: high concentrations, digitonin permeabilization
T5 construct: Full-length hSTING (wt and substitutions) and mSTING (wt) constructs were used for this cellular assay; expressed in transfected cells; host or cells: HEK293T
Method: (§3) Luciferase expression was determined after 12 h. […] Cells were lysed in Passive Lysis Buffer.
Luciferase assays for DMXAA experiments were performed as described above. Briefly, 3×10^4 293T cells were reverse-transfected with STING constructs (5 ng per 96-well) and reporter constructs (50 ng pIFNβ-Gluc, 10 ng pLenti-EF1-Fluc for normalization, 35 ng pMAX-empty as stuffer, delivered with TransIT-LT1, MirusBio, Madison Wis.). […] 12 hours after stimulation with STING-ligands, cells were resuspended in passive lysis buffer and luciferase activity was determined using the respective substrates Coelenterazine and D-Luciferin (PJK, Kleinblittersdorf, Germany). Gaussia Luciferase values were then normalized to constitutive Firefly Luciferase values (resulting in Relative Light Units, RLU).

[11] = molecular target: T6, hSTING^THP1 (Homo sapiens, UniProt Q86WV6, G230A/H232R/R293Q/R71H); assay: IFN-β luciferase reporter, HEK293T cells with hSTING^THP1; type: cell-based; conditions: high concentrations, digitonin permeabilization
T6 construct: Full-length hSTING (wt and substitutions) and mSTING (wt) constructs were used for this cellular assay; expressed in transfected cells; host or cells: HEK293T
Method: as §3

[12] = molecular target: T7, mSTING (mSting^R231) (Mus musculus, UniProt Q3TBT3); assay: IFN-β luciferase reporter, HEK293T cells with mSTING; type: cell-based; conditions: 5 and 10 μM, digitonin permeabilization, 12 h
T7 construct: Full-length hSTING (wt and substitutions) and mSTING (wt) constructs were used for this cellular assay; expressed in transfected cells; host or cells: HEK293T

[13] = molecular target: T8, hSTING S162A (hSTING^H232 and hSTING^R232 background) (Homo sapiens, UniProt Q86WV6, S162A); type: cell-based; conditions: digitonin permeabilization
T8 construct: Full-length hSTING (wt and substitutions) and mSTING (wt) constructs were used for this cellular assay; expressed in transfected cells; host or cells: HEK293T

[14] = THP-1, 0.5 h, THP1 - CXCL10, +Digitonin (30 min)
[15] = THP-1, THP1 - CXCL10, unpermeabilized, 18 h
[16] = Protein: 0.2 mM, Ligands: 0.9 mM, pH 7.5, 25° C.
[17] = cGAMP isomers, Protein: 0.2 mM, Ligands: 0.9 mM, 100 mM NaCl, pH 7.5, 25° C.

T1 sequence (Q86WV6 140-379): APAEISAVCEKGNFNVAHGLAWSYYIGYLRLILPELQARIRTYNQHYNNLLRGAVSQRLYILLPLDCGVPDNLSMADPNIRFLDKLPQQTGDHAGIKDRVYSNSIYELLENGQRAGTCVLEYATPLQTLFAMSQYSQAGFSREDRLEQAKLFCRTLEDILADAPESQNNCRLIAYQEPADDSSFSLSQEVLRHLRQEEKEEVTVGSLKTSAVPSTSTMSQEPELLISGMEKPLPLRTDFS
Chain of hSTING^R232 (aa 140-379) (Q86WV6 140-379 H232R): as the sequence (Q86WV6 140-379) above, with H93R counted along it
T6 sequence (Q86WV6 whole entry R71H/G230A/H232R/R293Q): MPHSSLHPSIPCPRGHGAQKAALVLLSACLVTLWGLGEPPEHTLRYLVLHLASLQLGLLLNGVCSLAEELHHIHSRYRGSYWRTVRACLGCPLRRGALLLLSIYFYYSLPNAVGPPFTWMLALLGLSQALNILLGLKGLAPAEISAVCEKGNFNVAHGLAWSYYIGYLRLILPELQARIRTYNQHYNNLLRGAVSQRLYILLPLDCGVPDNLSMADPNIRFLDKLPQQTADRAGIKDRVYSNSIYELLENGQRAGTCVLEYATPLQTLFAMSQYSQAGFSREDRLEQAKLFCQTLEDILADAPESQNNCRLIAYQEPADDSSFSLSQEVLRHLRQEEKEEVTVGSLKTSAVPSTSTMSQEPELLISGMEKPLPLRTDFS
T5 sequence (Q86WV6 whole entry H232R): as the sequence (Q86WV6 whole entry R71H/G230A/H232R/R293Q) above, with H71R, A230G, Q293R counted along it
T8 sequence (Q86WV6 whole entry S162A): as the sequence (Q86WV6 whole entry R71H/G230A/H232R/R293Q) above, with H71R, S162A, A230G, R232H, Q293R counted along it
T7 sequence (Q3TBT3 whole entry): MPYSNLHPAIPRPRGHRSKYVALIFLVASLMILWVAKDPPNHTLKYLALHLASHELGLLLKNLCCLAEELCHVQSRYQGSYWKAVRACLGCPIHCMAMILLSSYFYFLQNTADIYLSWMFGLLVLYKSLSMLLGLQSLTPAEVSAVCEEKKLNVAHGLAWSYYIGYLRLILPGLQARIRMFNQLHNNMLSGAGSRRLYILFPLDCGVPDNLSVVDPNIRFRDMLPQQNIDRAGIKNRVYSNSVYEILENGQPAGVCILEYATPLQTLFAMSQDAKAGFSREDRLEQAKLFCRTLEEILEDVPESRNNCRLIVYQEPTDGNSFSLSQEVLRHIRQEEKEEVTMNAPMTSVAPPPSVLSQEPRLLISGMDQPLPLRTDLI
T3 sequence (Q86WV6 whole entry): as the sequence (Q86WV6 whole entry R71H/G230A/H232R/R293Q) above, with H71R, A230G, R232H, Q293R counted along it

Nc1nc2c(ncn2[C@@H]2O[C@@H]3COP(=O)(O)O[C@@H]4[C@H](O)[C@@H](COP(=O)(O)O[C@@H]2[C@@H]3O)O[C@H]4n2cnc3c(N)ncnc32)c(=O)[nH]1
EC50 [1, 14]: 120 nM
EC50 [1, 15]: 1200 nM
EC50 ([2]; 0.5 h, +Digitonin (30 min)): 0.8 µM
EC50 ([2]; unpermeabilized, 18 h): 12.5 µM
Kd [3]: 170 ± 20 nM
TΔS [3, 16]: +14.88 Kcal/mol
ΔG [3, 16]: -9.25 kcal/mol
ΔH [3, 16]: +5.63 Kcal/mol
Kd [4]: 2500 ± 100 nM
TΔS [4]: +0.37 Kcal/mol
ΔG [4]: -7.52 kcal/mol
ΔH [4]: -7.15 kcal/mol
Kd [5]: 180 ± 20 nM
TΔS [5, 17]: +13.12 Kcal/mol
ΔG [5, 17]: -9.20 kcal/mol
ΔH [5, 17]: +3.92 Kcal/mol
IFN luciferase reporter dose-response to cGAMP isomers [6]: no significant differences in stimulation

Nc1nc2c(ncn2[C@@H]2O[C@@H]3COP(=O)(O)O[C@H]4[C@@H](O)[C@H](n5cnc6c(N)ncnc65)O[C@@H]4COP(=O)(O)O[C@@H]2[C@@H]3O)c(=O)[nH]1
EC50 [1, 14]: 140 nM
EC50 [1, 15]: 3400 nM
EC50 ([2]; 0.5 h, +Digitonin (30 min)): 0.29 µM
EC50 ([2]; unpermeabilized, 18 h): 12.5 µM

Nc1nc2c(ncn2[C@@H]2O[C@@H]3COP(=O)(O)O[C@H]4[C@@H](O)[C@H](n5cnc6c(N)ncnc65)O[C@@H]4COP(=O)(O)O[C@H]3[C@H]2O)c(=O)[nH]1
TΔS [7]: +0.65 Kcal/mol
ΔG [7]: -8.01 kcal/mol
ΔH [7]: -7.36 kcal/mol
EC50 [1, 14]: 330 nM
EC50 [1, 15]: 5700 nM
EC50 ([2]; 0.5 h, +Digitonin (30 min)): 0.42 µM
EC50 ([2]; unpermeabilized, 18 h): 8.4 µM
Tbk1 and Irf3 protein phosphorylation [8]: highest levels
potency in induction of Ifnb1, I16, Cc15 among the three cGAMP isomers [9]: most potent compound
TΔS [5, 17]: +12.94 Kcal/mol
ΔH [5, 17]: +3.95 Kcal/mol

Nc1nc2c(ncn2[C@@H]2O[C@@H]3COP(=O)(O)O[C@H]4[C@@H](O)[C@H](n5cnc6c(=O)[nH]c(N)nc65)O[C@@H]4COP(=O)(O)O[C@H]3[C@H]2O)c(=O)[nH]1 [c[di-GMP], cyclic di-GMP]
IFN luciferase reporter response to c[di-GMP] [10]: residual response
IFN luciferase reporter response to c[di-GMP] [11]: residual response
IFN luciferase reporter response to c[di-GMP] [12]: stimulated mSting
IFN luciferase reporter response to c[di-GMP] [13]: not restoring c[di-GMP] responsiveness
